Reference: publication PMC10712727, “Safety, Tolerability, and Pharmacokinetics of Senaparib, a Novel PARP1/2 Inhibitor, in Chinese Patients With Advanced Solid Tumors: A Phase I Trial” (The Oncologist, 2023)

System: patients with advanced solid tumors
Assay: Safety: treatment-emergent and senaparib-related adverse events graded per NCI CTCAE v4.03
Type: in vivo
Experimental: This phase I, open-label, multicenter, dose-escalation, and dose-expansion study was conducted at three national clinical institutions in China. […] At baseline, all patients enrolled in the dose-escalation phase had to have at least one evaluable lesion, and those in the dose-expansion period had to have at least one measurable lesion, according to Response Evaluation Criteria in Solid Tumors version 1.1 (RECIST v1.1).[16] Entry to the dose-expansion cohort required the presence of a BRCA mutation, with the exception of patients with ovarian carcinoma, fallopian tube carcinoma, and primary peritoneal carcinoma. Full study eligibility criteria are provided in Supplementary Table S1.
Dose escalation was conducted using a modified Fibonacci 3 + 3 method (Supplementary Fig. S1).[17] Patients were administered oral senaparib from a planned starting dose of 2 mg once daily (QD), with preliminary dose escalation to 120 mg via nine dose groups, in order of their entry into the study. At a given dose level, each patient received a single dose of senaparib followed by a 7-day washout period. They then entered a continuous dosing period to confirm the safety and PK profile, in which they received senaparib QD from day 1 to day 21 of each 3-week cycle. Progression to the next higher dose required approval from the Data Safety Monitoring Committee (DSMC) upon review of the safety and PK data of the previous dose. A 50-mg twice-daily (BID) dosing group was added (planned enrollment, n = 6 patients) based on a DSMC review of the safety, PK, and efficacy analysis of the completed QD dose groups in the phase I clinical trial of senaparib dose escalation in Australia (NCT03507543), which commenced prior to the start of this trial.
The dose-expansion period included 3 populations: dose groups in which at least one patient achieved complete response (CR) or partial response (PR) per RECIST v1.1[16] and 1 dose group higher (evaluated for safety), as well as the dose group at the maximum tolerated dose (MTD)/recommended phase II dose (RP2D). Each of these groups included those patients in the respective dose-escalation group plus a planned additional 10 patients (approximately 20 patients in the MTD/RP2D group) with BRCA^mut+ solid tumors (ovarian, breast, or prostate cancer were preferred, and ovarian cancer could be BRCA wild type). Patients received senaparib monotherapy orally QD or BID (50-mg dose only) over each 3-week cycle until disease progression or unacceptable toxicity.
DLTs were predefined toxicities (Supplementary Table S2) recorded over the 7 days following the single-dose administration of senaparib and during the first treatment cycle (day 1-day 21) for each dose group in the dose-escalation period only. The MTD was defined as the maximum dose at which ≤1/6 patients experienced a DLT. Senaparib PK parameters were derived from blood samples collected from patients after the single administration, and at regular intervals during the first cycle of the dose-escalation and dose-expansion periods. Plasma concentrations of senaparib were determined using high-performance liquid chromatography-tandem mass spectrometry. Tumor response was assessed every 6 weeks per RECIST v1.1,[16] recording objective response rate (ORR), disease control rate (DCR), duration of response (DOR), and progression-free survival (PFS) by dose level for all patients and for those harboring BRCA^mut+ tumors.

O=C(c1cc(Cn2c(=O)[nH]c(=O)c3c(F)cccc32)ccc1F)N1CCN(c2ncccn2)CC1 [Senaparib]
TRAEs Grade ≥3, events (40 mg QD n = 3): 0 n ev | TRAEs Grade ≥3, patients (40 mg QD n = 3): 0 n (%) | TRAEs, events (40 mg QD n = 3): 6 n ev | TRAEs, patients (40 mg QD n = 3): 3 (100) n (%) | Vomiting TRAE, All (40 mg QD n = 3): 0 n (%) | Vomiting TRAE, Gr≥3 (40 mg QD n = 3): 0 n (%) | WBC decreased TRAE, All (40 mg QD n = 3): 0 n (%) | WBC decreased TRAE, Gr≥3 (40 mg QD n = 3): 0 n (%) | ALT increased TRAE, All (50 mg BID n = 4): 1 (25.0) n (%) | ALT increased TRAE, Gr≥3 (50 mg BID n = 4): 0 n (%) | AST increased TRAE, All (50 mg BID n = 4): 1 (25.0) n (%) | AST increased TRAE, Gr≥3 (50 mg BID n = 4): 0 n (%) | Anemia TRAE, All (50 mg BID n = 4): 3 (75.0) n (%) | Anemia TRAE, Gr≥3 (50 mg BID n = 4): 2 (50.0) n (%) | Any TEAE, All (50 mg BID n = 4): 4 (100) n (%) | Any TEAE, Gr≥3 (50 mg BID n = 4): 3 (75.0) n (%) | Any TEAE, events (50 mg BID n = 4): 32 n ev | Any TEAE, patients (50 mg BID n = 4): 4 (100) n (%) | Any TRAE, All (50 mg BID n = 4): 4 (100) n (%) | Any TRAE, Gr≥3 (50 mg BID n = 4): 2 (50.0) n (%) | Appetite decreased TRAE, All (50 mg BID n = 4): 0 n (%) | Appetite decreased TRAE, Gr≥3 (50 mg BID n = 4): 0 n (%) | Asthenia TRAE, All (50 mg BID n = 4): 1 (25.0) n (%) | Asthenia TRAE, Gr≥3 (50 mg BID n = 4): 0 n (%) | Blood bilirubin increased TRAE, All (50 mg BID n = 4): 0 n (%) | Blood bilirubin increased TRAE, Gr≥3 (50 mg BID n = 4): 0 n (%) | Blood creatinine increased TRAE, All (50 mg BID n = 4): 0 n (%) | Blood creatinine increased TRAE, Gr≥3 (50 mg BID n = 4): 0 n (%) | Hypokalemia TRAE, All (50 mg BID n = 4): 0 n (%) | Hypokalemia TRAE, Gr≥3 (50 mg BID n = 4): 0 n (%) | Nausea TRAE, All (50 mg BID n = 4): 2 (50.0) n (%) | Nausea TRAE, Gr≥3 (50 mg BID n = 4): 0 n (%) | Neutrophil count decreased TRAE, All (50 mg BID n = 4): 0 n (%) | Neutrophil count decreased TRAE, Gr≥3 (50 mg BID n = 4): 0 n (%) | Platelet count decreased TRAE, All (50 mg BID n = 4): 1 (25.0) n (%) | Platelet count decreased TRAE, Gr≥3 (50 mg BID n = 4): 0 n (%) | SAEs, events (50 mg BID n = 4): 1 n ev | SAEs, patients (50 mg BID n = 4): 1 (25.0) n (%) | TEAE Grade ≥3, events (50 mg BID n = 4): 3 n ev | TEAE Grade ≥3, patients (50 mg BID n = 4): 3 (75.0) n (%) | TEAEs leading to death, events (50 mg BID n = 4): 0 n ev | TEAEs leading to death, patients (50 mg BID n = 4): 0 n (%) | TEAEs leading to dose discontinuation, events (50 mg BID n = 4): 0 n ev | TEAEs leading to dose discontinuation, patients (50 mg BID n = 4): 0 n (%) | TEAEs leading to dose interruption, events (50 mg BID n = 4): 1 n ev | TEAEs leading to dose interruption, patients (50 mg BID n = 4): 1 (25.0) n (%) | TEAEs leading to dose reduction, events (50 mg BID n = 4): 1 n ev | TEAEs leading to dose reduction, patients (50 mg BID n = 4): 1 (25.0) n (%) | TRAEs Grade ≥3, events (50 mg BID n = 4): 2 n ev | TRAEs Grade ≥3, patients (50 mg BID n = 4): 2 (50.0) n (%) | TRAEs, events (50 mg BID n = 4): 26 n ev | TRAEs, patients (50 mg BID n = 4): 4 (100) n (%) | Vomiting TRAE, All (50 mg BID n = 4): 2 (50.0) n (%) | Vomiting TRAE, Gr≥3 (50 mg BID n = 4): 0 n (%) | WBC decreased TRAE, All (50 mg BID n = 4): 2 (50.0) n (%) | WBC decreased TRAE, Gr≥3 (50 mg BID n = 4): 0 n (%) | ALT increased TRAE, All (60 mg QD n = 5): 0 n (%) | ALT increased TRAE, Gr≥3 (60 mg QD n = 5): 0 n (%) | AST increased TRAE, All (60 mg QD n = 5): 0 n (%) | AST increased TRAE, Gr≥3 (60 mg QD n = 5): 0 n (%) | Anemia TRAE, All (60 mg QD n = 5): 0 n (%) | Anemia TRAE, Gr≥3 (60 mg QD n = 5): 0 n (%) | Any TEAE, All (60 mg QD n = 5): 5 (100) n (%) | Any TEAE, Gr≥3 (60 mg QD n = 5): 2 (40.0) n (%) | Any TEAE, events (60 mg QD n = 5): 33 n ev | Any TEAE, patients (60 mg QD n = 5): 5 (100) n (%) | Any TRAE, All (60 mg QD n = 5): 5 (100) n (%) | Any TRAE, Gr≥3 (60 mg QD n = 5): 0 n (%) | Appetite decreased TRAE, All (60 mg QD n = 5): 1 (20.0) n (%) | Appetite decreased TRAE, Gr≥3 (60 mg QD n = 5): 0 n (%) | Asthenia TRAE, All (60 mg QD n = 5): 1 (20.0) n (%) | Asthenia TRAE, Gr≥3 (60 mg QD n = 5): 0 n (%) | Blood bilirubin increased TRAE, All (60 mg QD n = 5): 0 n (%) | Blood bilirubin increased TRAE, Gr≥3 (60 mg QD n = 5): 0 n (%) | Blood creatinine increased TRAE, All (60 mg QD n = 5): 1 (20.0) n (%) | Blood creatinine increased TRAE, Gr≥3 (60 mg QD n = 5): 0 n (%) | Hypokalemia TRAE, All (60 mg QD n = 5): 1 (20.0) n (%) | Hypokalemia TRAE, Gr≥3 (60 mg QD n = 5): 0 n (%) | Nausea TRAE, All (60 mg QD n = 5): 1 (20.0) n (%) | Nausea TRAE, Gr≥3 (60 mg QD n = 5): 0 n (%) | Neutrophil count decreased TRAE, All (60 mg QD n = 5): 1 (20.0) n (%) | Neutrophil count decreased TRAE, Gr≥3 (60 mg QD n = 5): 0 n (%) | Platelet count decreased TRAE, All (60 mg QD n = 5): 2 (40.0) n (%) | Platelet count decreased TRAE, Gr≥3 (60 mg QD n = 5): 0 n (%) | SAEs, events (60 mg QD n = 5): 2 n ev | SAEs, patients (60 mg QD n = 5): 2 (40.0) n (%) | TEAE Grade ≥3, events (60 mg QD n = 5): 2 n ev | TEAE Grade ≥3, patients (60 mg QD n = 5): 2 (40.0) n (%) | TEAEs leading to death, events (60 mg QD n = 5): 0 n ev | TEAEs leading to death, patients (60 mg QD n = 5): 0 n (%) | TEAEs leading to dose discontinuation, events (60 mg QD n = 5): 1 n ev | TEAEs leading to dose discontinuation, patients (60 mg QD n = 5): 1 (20.0) n (%) | TEAEs leading to dose interruption, events (60 mg QD n = 5): 1 n ev | TEAEs leading to dose interruption, patients (60 mg QD n = 5): 1 (20.0) n (%) | TEAEs leading to dose reduction, events (60 mg QD n = 5): 0 n ev | TEAEs leading to dose reduction, patients (60 mg QD n = 5): 0 n (%) | TRAEs Grade ≥3, events (60 mg QD n = 5): 0 n ev | TRAEs Grade ≥3, patients (60 mg QD n = 5): 0 n (%) | TRAEs, events (60 mg QD n = 5): 27 n ev | TRAEs, patients (60 mg QD n = 5): 5 (100) n (%) | Vomiting TRAE, All (60 mg QD n = 5): 0 n (%) | Vomiting TRAE, Gr≥3 (60 mg QD n = 5): 0 n (%) | WBC decreased TRAE, All (60 mg QD n = 5): 2 (40.0) n (%) | WBC decreased TRAE, Gr≥3 (60 mg QD n = 5): 0 n (%) | ALT increased TRAE, All (80 mg QD n = 9): 1 (11.1) n (%) | ALT increased TRAE, Gr≥3 (80 mg QD n = 9): 0 n (%) | AST increased TRAE, All (80 mg QD n = 9): 2 (22.2) n (%) | AST increased TRAE, Gr≥3 (80 mg QD n = 9): 0 n (%) | Anemia TRAE, All (80 mg QD n = 9): 7 (77.8) n (%) | Anemia TRAE, Gr≥3 (80 mg QD n = 9): 3 (33.3) n (%) | Any TEAE, All (80 mg QD n = 9): 9 (100) n (%) | Any TEAE, Gr≥3 (80 mg QD n = 9): 6 (66.7) n (%) | Any TEAE, events (80 mg QD n = 9): 132 n ev | Any TEAE, patients (80 mg QD n = 9): 9 (100) n (%) | Any TRAE, All (80 mg QD n = 9): 9 (100) n (%) | Any TRAE, Gr≥3 (80 mg QD n = 9): 5 (55.6) n (%)
